USRE38962E1, “Diphenyl-triazole derivatives and their use as anti-gestative immuno-suppressant and anti-tumoral agents” (Geange Ltd., priority 1997, dated 2006)
Marks after values point to notes of the source that are not given here.

Legend:
S.D. Rats = assay: Pregnancy termination activity in S.D. rats after a single subcutaneous injection at day 7 of gestation; type: in vivo, Sprague Dawley rats; conditions: single subcutaneous injection on day 7 of gestation; for ED50: Rattus norvegicus, sc, autopsy day 16, read-out: ED50 (dose terminating pregnancy, absence of live foetuses, in 50% of treated animals); for ED50 (dose terminating pregnancy in 50% of treated animals): autopsy day 16
Experimental: In particular, female Sprague Dawley rats weighing 200-230 g. were mated and the presence of sperm was detected, was considered day one of pregnancy.
Pregnancy was later confirmed at the time of autopsy by the presence of implantation sites in the uterus.
Test compounds dissolved in sesame oil containing 20% benzyl benzoate (or suspended if insoluble), were administered subcutaneously, in a single injection, on day 7 of gestation. The animals were then autopsied on day 16 of pregnancy and the uteri were examined for evidence of pregnancy (implantation sites, foetal resorption or live foetuses), haemorrhage, and evidence of abnormalities of the uterus, placenta or foetuses, for reference see G. Galliani et al. Contraception, 23, 163-180 (198).
These values identify the dose levels which terminate pregnancy (absence of live foetuses) in 50% of the treated animals.

Acute toxicity studies = conditions: in vivo
Experimental: Acute toxicity studies did show as the lethal doses of compounds (VI), LD50>500 mg/kg, are of three order of magnitude higher than those anti-gestative.

Beagle bitches = assay: Contragestational effect in Beagle bitches after a single intramuscular dose; type: in vivo; conditions: for Pregnancy arrest (%): single i.m. 5 mg/kg (11.1 μmoles/kg)
Experimental: The compound was given intramuscularly in one depot site of the thigh muscle of the right hind leg dissolved in sesame oil at the dose of 5 mg/kg (11.1 μmoles/kg , […], 0.2 mL/kg). The anti-gestative effectiveness was ascertained by exploratory laparatomy examining uterine horns where the presence of live or dead foetuses was deduced from the dimension and appearance of each uterine swelling, for methodological reference see G. Galliani et al., J. Small Animal Practice, 25, 211-222 (1984).

[1] = test system: Sheep Red Blood Cells (SRBC); assay: IgM antibody response to SRBC (direct plaque forming cells in spleen); type: in vivo, B6D2F1 mice; conditions: antigen SRBC, dosing day 0, 8.60 μmoles/Kg/day; vehicle 124 + 18; p < 0.01
Experimental: (§1) In detail, the Antibody Response to Sheep Red Blood Cells (SRBC) and to Lipo-polysaccharide (LPS), was studied in B6D2F1 mice injected intravenously 10^8 SRBC (day 0). Direct (IgM) and indirect (IgG) plaque forming cells (PFC) were evaluated in the spleen 4 and 10 days later, Jerne et al. Science 140, 405 (1963) and Dresser and Wortis, Nature, 208, 859(1965).

[2] = test system: Lipo-polysaccharide (LPS); assay: IgM antibody response to LPS (plaque forming cells in spleen); type: in vivo, B6D2F1 mice; conditions: antigen LPS, dosing day 0, 8.60 μmoles/Kg/day; vehicle 10 + 2; p < 0.01
Experimental: as §1
(§2) Indirect PCF were developed with rabbit anti-serum to mouse gamma globulin. B6D2F1 mice were immunised with 20 μg LPS intra-peritoneally. Four days later, PCF were determined in the spleen by SRBC coated with LPS, Moller, Nature, 207, 1166(1965).

[3] = test system: Sheep Red Blood Cells (SRBC); assay: IgG antibody response to SRBC (indirect plaque forming cells in spleen); type: in vivo, B6D2F1 mice; conditions: dosing day 0, 2.15 μmoles/Kg/day; vehicle 24 + 3
Experimental: as §1, §2

SRBC = assay: Delayed type hypersensitivity (DTH), footpad swelling; type: in vivo, C57B1/6 mice; conditions: dosing day 0, 3.60 μmoles/Kg/day; vehicle 11.4 + 3.7
Experimental: Delayed Type hypersensitivity (DTH), was carried out in C57B1/6 mice administered subcutaneously 2×10^8 SRBC emulsified in complete Freund's adjuvant. Ten days later an eliciting dose of 10^8 SRBC was inoculated into a footpad. The DTH reaction was recorded 24 hours later by measuring the footpad swelling (Kerckhaert et al, i Cell Immunology, 29, 232, (1977).

[4] = test system: grafts of skin from C3H (H-2^k) donor mice; assay: Skin graft survival time (C3H donor onto C57B1/6 recipient); type: in vivo, C57B1/6 mice; conditions: dosing days −1, 7, 17.20 μmols/Kg/day; vehicle 10.7 + 0.4
Experimental: For the Skin Grafting, fitted pinch, grafts of skin from C3H (H-2^k) donor mice were transplanted onto C57B1/6 (H-2^b) recipient mice (Mistrello et al,. 1984) Bandages were removed 7 days later and graft were scored daily by microscopy. Rejection was recorded when no viable epidermis remained. The median survival time (MST) of the grafts, measured as days, was calculated according to Litchfield (1949).

human chorio-carcinoma = assay: Growth of human chorio-carcinoma transplanted into nude mice; type: in vivo

CCCCCCCCOC(=O)OCc1ccccc1-c1n[nH]c(-c2cccc(OCC)c2)n1 [(VI)]
ED50 (S.D. Rats): 2 mg/kg | ED50 (dose terminating pregnancy in 50% of treated animals) (S.D. Rats): 4.4 µmol/kg | LD50 (Acute toxicity studies): > 500 mg/kg | Pregnancy arrest (%) (Beagle bitches; administered day 15 of gestation): 80% | Pregnancy arrest (%) (Beagle bitches; administered day 20 of gestation): 100% | Pregnancy arrest (%) (Beagle bitches; administered day 25 of gestation): 100% | Tolerability (Beagle bitches; single intramuscular dose): very well tolerated | Anti-gestative effectiveness (Beagle bitches; single intramuscular dose between day of mating and 25th day of gestation): highly effective | PCF/spleen.10^−3 (mean = S.D.), IgM response [1]: 12 + 3* PCF/spleen.10^−3 | PCF/spleen.10^−3 (mean = S.D.), IgM response [2]: 3 + 1* PCF/spleen.10^−3 | PFC/SPLEEN.10^−3 (mean + S.D.), IgG response to SRBC [3]: 3 + 3* PFC/SPLEEN.10^−3 | FOOTPAD SWELLING UNITS (Mean + S.D.), DTH (SRBC): 5.2 + 1.2** UNITS | MST, days (mean ± S. D.), skin graft median survival time [4]: 15.1 + 0.6* days | Potency compared with methotrexate (human chorio-carcinoma; human chorio-carcinoma transplanted into nude mice): even higher than that displayed by methotrexate | Inhibition of the growth of human chorio-carcinoma (human chorio-carcinoma; transplanted into nude mice): highly effective

CCCCOC(=O)OCc1ccccc1-c1n[nH]c(-c2cccc(OCC)c2)n1 [(XIV)]
ED50 (S.D. Rats): 8 mg/kg | ED50 (dose terminating pregnancy in 50% of treated animals) (S.D. Rats): 20.3 µmol/kg

CCOC(=O)OCc1ccccc1-c1n[nH]c(-c2cccc(OCC)c2)n1 [(XV)]
ED50 (S.D. Rats): 15 mg/kg | ED50 (dose terminating pregnancy in 50% of treated animals) (S.D. Rats): 27.2 µmol/kg

CCCCCCOC(=O)OCc1ccccc1-c1n[nH]c(-c2cccc(OCC)c2)n1 [(XVI)]
ED50 (S.D. Rats): 5 mg/kg | ED50 (dose terminating pregnancy in 50% of treated animals) (S.D. Rats): 11.8 µmol/kg

CCOc1cccc(-c2n[nH]c(-c3ccccc3CO)n2)c1 [D, 5-(2-Hydroxymethylphenyl)-3-(3-ethoxy-phenyl)-1H-1,2,4-triazole, reference compound]
ED50 (S.D. Rats): 16 mg/kg | ED50 (dose terminating pregnancy in 50% of treated animals) (S.D. Rats): 54.6 µmol/kg
